Where a name gives a salt, the structure may show the parent alone. One block for each compound: values may come before it.
How the values were obtained:
[1] = system: C57BL/6J mice fed a high-fat diet; assay: High-fat diet mouse model for in vivo compound delivery; conditions: for known TFEB target genes mRNA in liver and muscle: HFD mice treated with AD or IKA (PEG-PLA nanoparticles i.v.); for high fat diet-induced steatosis (liver histology): 3 weeks, DG oral, AD and IKA i.v. in PEG-PLA nanoparticles; for body weight/composition and blood chemistry: AD 1 mg kg-1 or IKA 0.5 mg kg-1 in PEG-PLA nanoparticles i.v.; for expression of Ppargc1α, Ppar1α and Fgf21: liver
Procedure: Total RNA was isolated from MEFs or mouse tissues using RNeasy minipreps (QIAGEN). Complementary DNA (cDNA) was synthesized with the High capacity RNA-to-cDNA kit (Applied biosystems), and qRT-PCR was performed using TaqMan® Gene Expression Assays (Applied biosystems) for the indicated genes on the LightCycler System (Roche Applied Science). Gapdh was used to normalize RNA input. The mouse probes used in this study were: Tfeb (Mm00448968_m1), Ctsa (Mm00447197_m1), Mcoln 1 (Mm00522550_m1), Ppara (Mm00440939_m1), Ppargc1a (Mm01208835_m1), Fgf21 (Mm00840165_g1) and Gapdh (Mm99999915_g1), and the human probes used were TFEB (Hs00292981_m1), CTSA (Hs00264902_m1), MCOLN1 (Hs01100653_m1), PPARGC1A (Hs00173304_m1), PPARA (Hs00947536_m1), UVRAG (Hs01075434_m1), GAPDH (Hs02758991_g1) and p62/SQSTM1 (Hs01061917_g1). All probes were from Thermo Fisher Scientific Inc.
All mouse experiments were approved and carried out following the ethical guidelines established by the Institutional Animal Care and Use Committee at UT Southwestern Medical Center. The investigators were not blinded to allocation during experiments and outcome assessment. Four to six weeks old male C57BL/6J mice were randomly divided into groups fed a regular diet (Harlan Teklad) or a high-fat diet (HFD) containing 60% fat (Research Diets). After one month, the HFD mice were grouped so that the average body weights of mice in each group were similar. The grouped mice were orally administered DG (2.5 mg kg-1) or its solvent 50% HPβCD solution, or intravenously injected with AD (1 mg kg-1) or IKA (0.5 mg kg-1) encapsulated in the PEG-PLA nanoparticles or empty nanoparticles, three times a week for three weeks. Body weight and food intake were measured twice a week before treatment and every day after treatment in the middle of the light period. The cage tops containing food pellets were weighed, as well as the spilled food in the bottom of the cage. The food intake was corrected for spillage.
At the end of the treatment, the body composition of each mouse was analyzed by EchoMRI (Echo Medical Systems LLC) according to the manufacturer's instructions.
For glucose tolerance tests, the mice were orally administered 1 mg g-1 glucose (Sigma-Aldrich) after a 4 hr fast. For insulin tolerance tests, the mice were intraperitoneally injected with 0.75 milliunit g-1 insulin (Humulin R, Eli Lily) after a 4 hr fast. Blood was drawn from tail veins at indicated time points after injection. Experiments were performed during light period. Serum glucose levels were analyzed using commercial glucose reagents (Sigma).
At the end of the treatment, blood was collected from the orbital plexus under anesthesia. Serum was frozen in aliquots and stored at −20° C. for further analysis. Specific enzyme kits were used to detect serum levels of triglyceride (Fisher Scientific), cholesterol (Fisher Scientific) and glucose (Sigma-Aldrich).
Livers and other organs were dissected and embedded in OCT. Cryostat sections were cut at 10 μm. The sections were stored at −80° C. and subjected to haematoxylin/eosin and oil red O staining following standard protocol. The immunohistochemistry (IHC) staining of p62 was performed following the protocol of Cell Signaling Technology. The primary antibody was from Abcam, and the SignalStain® boost IHC detection reagent and DAB substrate kit were from Cell Signaling Technology. All the sections were imaged using a NanoZoomer 2.0-HT Digital slide scanner (Hamamatzu) and processed using NDP viewer software.

[2] = system: C. elegans; assay: C. elegans lifespan analysis; type: in vivo; conditions: for Lifespan increase (%): vs DMSO
Procedure: The C. elegans mutant strain, fem-1(hc17ts) IV; dal-1(dt2300), obtained from the Caenorhabditis Genetics Center at the University of Minnesota, was cultured on Nematode Growth Medium (NGM) plates seeded with the E. coli strain OP50 and consistently maintained at 15° C. For lifespan assays, a total of 12 age-synchronized nematode adults were transferred to eight replicate NGM plates and grown at 25° C. to ensure sterility. Age synchronization was achieved through standard hypochlorite treatments. Eggs were placed on NGM plates supplemented with Streptomycin (100 μg ml-1) and seeded with the E. coli strain, OP50. For compound testing, 200 μl of 10 μM Ikarugamycin in 5% DMSO was spotted directly onto OP50 seeded NGM plates. Control plates were prepared by spotting 200 μl of 5% DMSO directly onto OP50 seeded NGM plates. For the first 10 days of adulthood, C. elegans were scored once a day as dead or alive by touch stimulation with a platinum wire. After day 10, animals were scored every other day. Nematodes which crawling off the agar plates were censored from subsequent lifespan analysis. Kaplan-Meier statistical analysis was performed using Prism 7 software. Lifespan experiments were done on two separate occasions.

[3] = system: mTORC1; assay: TSC2 dependence of mTORC1 inhibition and TFEB activation in p53-/- and p53-/-, TSC2-/- MEFs; type: cell-based, mouse; conditions: p53-/- vs p53-/-
[4] = system: mice under fed and fast conditions; assay: Short-term starvation and chloroquine-induced acute hepatic lipid accumulation in mice; type: in vivo, mouse
Procedure: SFIGS. […] (SFIG. 6A) The body weight (left y-axis, solid symbols) and food intake (right y-axis, open symbols) measured in normal-diet-fed mice treated with vehicle or 2.5 mg/kg DG. (SFIG. 6B) Drug release curves of AD (upper panel) and IKA (lower panel) in PBS. […] (SFIG. 6F) Cells were treated with various doses DG, AD and IKA for 4 hours, and cell viability was measured immediately or after 72 hours. Dose response curves were simulated using ImageJ. (SFIG. 6G) H&E staining of heart, spleen and kidney sections from mice treated with DG, AD, IKA and their corresponding controls. Scale bar, 100 μm. (SFIG. 6H) H&E staining of liver and heart sections as well as ORO and p62/SQSTM1 IHC staining of liver sections from mice under fed and fast conditions with orally injected DG and intraperitoneally injected CQ, individually and jointly, or their corresponding control (Saline). Scale bar, 50 μm. (SFIG. 6I) The body weight of mice after the treatment described in SFIG. 6H. (SFIGS. 6J-L) Total serum levels of triglyceride, cholesterol and glucose of mice after the treatment described in SFIG. 6G.

[5] = Body weight of normal-diet-fed (lean) mice; type: in vivo, mouse; conditions: 2.5 mg/kg DG
[6] = system: HepG2 cells; assay: Oleic acid-induced lipid accumulation (oil red O staining); conditions: 1 mM oleic acid; 370 nM DG, 3.3 μM AD and IKA
[7] = HFD mice, three times a week for three weeks
[8] = HFD mice, DG 2.5 mg kg-1 oral, three times a week for three weeks

Compound: CC[C@H]1[C@@H]2C=C[C@@H]3[C@H]4C/C=C\C(=O)NCCC[C@@H]5NC(=O)/C(=C(O)/C=C/[C@@H]4C[C@@H]3[C@H]2C[C@H]1C)C5=O [IKA, ikarugamycin]
known TFEB target genes mRNA in liver and muscle [1]: upregulated in the liver rather than in the muscle | high fat diet-induced steatosis (liver histology) ([1]; HFD mice): amelioration | body weight/composition and blood chemistry [1, 7]: significant normalization | expression of Ppargc1α, Ppar1α and Fgf21 ([1]; HFD mice): upregulation | lifespan of fem-1(−);dal-1(−) animals ([2]; 5 μM IKA vs DMSO): significantly extended | 75th % ([2]; 1st experiment): 16 days | Mean Lifespan ± s.e.m ([2]; 1st experiment): 21.8 ± 0.6 days | Median lifespan ([2]; 1st experiment): 22 days | Lifespan increase (%) ([2]; 1st experiment): 22.2% | Mean Lifespan ± s.e.m ([2]; 2nd experiment): 23.0 ± 0.5 days | Median lifespan ([2]; 2nd experiment): 24 days | Lifespan increase (%) ([2]; 2nd experiment): 22.3% | dependence of mTORC1 inhibition / TFEB activation on TSC2 [3]: TSC2-dependent

Compound: C[C@H]1O[C@@H](O[C@H]2[C@@H](O)C[C@H](O[C@H]3[C@@H](O)C[C@H](O[C@H]4CC[C@@]5(C)[C@H](CC[C@@H]6[C@@H]5C[C@@H](O)[C@]5(C)[C@@H](C7=CC(=O)OC7)CC[C@]65O)C4)O[C@@H]3C)O[C@@H]2C)C[C@H](O)[C@@H]1O [DG, digoxin, reference compound]
p62/SQSTM1 accumulation in liver ([4]; fast, CQ, DG oral): reduction | fast-induced hepatic lipid accumulation ([4]; overnight fast, CQ intraperitoneal, DG oral co-administration): improved | high fat diet-induced steatosis (liver histology) ([1]; HFD mice): amelioration | body composition [1, 8]: normalized | body weight [1, 8]: normalized | circulating cholesterol [1, 8]: normalized | circulating glucose [1, 8]: normalized | circulating insulin levels [1, 8]: normalized | circulating triglycerides [1, 8]: normalized | expression of Ppargc1α, Ppar1α and Fgf21 ([1]; HFD mice): upregulation | body weight of lean mice [5]: did not alter | oleic acid-induced lipid accumulation in human hepatocytes [6]: significantly ameliorated

oleic acid-induced lipid accumulation in human hepatocytes [6]: significantly ameliorated
Compound: CCCCC(CC)CNC(=N)NC(=N)NCCCCCCNC(=N)NC(=N)NCC(CC)CCCC (stereo not shown) [AD, alexidine dihydrochloride]
known TFEB target genes mRNA in liver and muscle [1]: upregulated in the liver rather than in the muscle | high fat diet-induced steatosis (liver histology) ([1]; HFD mice): amelioration | body weight/composition and blood chemistry [1, 7]: significant normalization | expression of Ppargc1α, Ppar1α and Fgf21 ([1]; HFD mice): upregulation | dependence of mTORC1 inhibition / TFEB activation on TSC2 [3]: TSC2-dependent

— patent US20200333357A1, “NOVEL TFEB PATHWAY AGONISTS FOR METABOLIC DISEASES AND AGEING” (The Board of Regents of the University of Texas System, priority 2017, published 2020)
